Measured values published in patent US5770623A, “Argine antagonists for inhibition of systemic hypotension associated with nitric oxide production or endothelial derived relaxing factor” (Board of Regents, The University of Texas System, priority 1995, dated 1998).
Like-named read-outs stand apart in the source and are kept apart here.

Tests used:
rabbit aortic rings = assay: ACh-induced relaxation of isolated rabbit aortic rings; conditions: isolated rabbit aortic rings, FIG. 9b
Excerpt: FIG. 9b compares concentration-response relationships for the same set of mono- and disubstituted arginine analogs as FIG. 9a, plus an additional dimethyl analog with the two methyl groups on different guanidino nitrogens. The test is for inhibition of ACh-induced vasorelaxation in isolated rabbit aortic rings. The points plotted represent means±S.E. of the maximum responses to ACh observed in the presence of the indicated concentrations of analogs (n=4).
Guinea pig pulmonary artery (GP PA), rat and rabbit aorta (Ao), and dog coronary (CA) and femoral artery (FA) were precontracted with NE (1 μM) and relaxed with a single concentration of ACh. Concentration of ACh: GP PA 1 μM, rat Ao […], rabbit Ao 0.3, dog CA […] and […] 0.1 μM. […] The concentrations of L-citrulline (L-cit), D-arginine (D-arg) and L-arginine (L-arg) were all 0.5 mM. Bars are mean values±SEM (n=4-6).
FIG. 11 contains representative physiograph tracings which depict ACh-induced relaxation of NE-preconstricted rings prepared from rabbit aorta (upper panel) and human internal mammary artery (lower panel).

[1] = test system: guinea pig pulmonary artery rings; assay: Relaxation of preconstricted guinea pig pulmonary artery rings; conditions: for inhibition of EDRF/NO synthesis: guinea pig pulmonary artery rings, 1 μM NE, ACh
[2] = test system: murine endothelial cells exposed to Gamma-Interferon and TNF (nitric oxide production); assay: Inhibition of nitrite production by MBEC exposed to IFN (100 U/ml) and TNF (500 U/ml); assay type: cell-based; conditions: for IC50: Mus musculus, Endothelial cell, 48 h, read-out: ED50% (effective dose that inhibited 50% of the nitrite production); for potency ranking as inhibitor of nitric oxide production: analogs of Table 5
Experimental: Endothelial cells--MBEC's were isolated from murine brain microvessels and cultured on gelatin-coated tissue culture dishes in DME/F12 media supplemented with 2% PPPHS, 5% FBS (Hyolone), 50 μg/ml ECGF (Biomed Tech), and 10 U/ml heparin (Sigma) as previously described (Belloni et al. 1989). The endothelial derivation of MBEC's was determined by the presence of a non-thrombogenic surface to platelets and immunofluorescent staining for Factor VIII related antigen. MBEC's were used between passage 6-9 for all experiments.
Nitrite Assay--MBE cells were cultured on gelatin-coated well plates (Corning) in 100 μl of culture medium and treated with cytokines at 3 days post-confluence. After 48 hours, nitrite production was determined by a colorimetric assay. […] All treatments were performed in triplicate and data presented as the mean value±standard deviation. […]
production by murine endothelial cells exposed to GammaInterferon (100
U/ml) and TNF (500 U/ml) in vitro.

anesthetized guinea pig = assay: Pressor effect in the anesthetized guinea pig; assay type: in vivo; conditions: 1-10 mg/kg i.v. (L-NMA)
Excerpt: Points are mean changes in diastolic arterial pressure (±SEM; n=4-5). Control systolic and diastolic BP was 75±3 and 51±3 mm Hg, respectively.

[3] = biological target: EMT6 enzyme system (NO formation from L-arginine) (Mus musculus, UniProt P29477); assay: Arginine-dependent nitrite synthesis by cytosol of stimulated EMT6 cells; assay type: biochemical, murine
Sequence of EMT6 enzyme system (NO formation from L-arginine) (P29477 whole entry): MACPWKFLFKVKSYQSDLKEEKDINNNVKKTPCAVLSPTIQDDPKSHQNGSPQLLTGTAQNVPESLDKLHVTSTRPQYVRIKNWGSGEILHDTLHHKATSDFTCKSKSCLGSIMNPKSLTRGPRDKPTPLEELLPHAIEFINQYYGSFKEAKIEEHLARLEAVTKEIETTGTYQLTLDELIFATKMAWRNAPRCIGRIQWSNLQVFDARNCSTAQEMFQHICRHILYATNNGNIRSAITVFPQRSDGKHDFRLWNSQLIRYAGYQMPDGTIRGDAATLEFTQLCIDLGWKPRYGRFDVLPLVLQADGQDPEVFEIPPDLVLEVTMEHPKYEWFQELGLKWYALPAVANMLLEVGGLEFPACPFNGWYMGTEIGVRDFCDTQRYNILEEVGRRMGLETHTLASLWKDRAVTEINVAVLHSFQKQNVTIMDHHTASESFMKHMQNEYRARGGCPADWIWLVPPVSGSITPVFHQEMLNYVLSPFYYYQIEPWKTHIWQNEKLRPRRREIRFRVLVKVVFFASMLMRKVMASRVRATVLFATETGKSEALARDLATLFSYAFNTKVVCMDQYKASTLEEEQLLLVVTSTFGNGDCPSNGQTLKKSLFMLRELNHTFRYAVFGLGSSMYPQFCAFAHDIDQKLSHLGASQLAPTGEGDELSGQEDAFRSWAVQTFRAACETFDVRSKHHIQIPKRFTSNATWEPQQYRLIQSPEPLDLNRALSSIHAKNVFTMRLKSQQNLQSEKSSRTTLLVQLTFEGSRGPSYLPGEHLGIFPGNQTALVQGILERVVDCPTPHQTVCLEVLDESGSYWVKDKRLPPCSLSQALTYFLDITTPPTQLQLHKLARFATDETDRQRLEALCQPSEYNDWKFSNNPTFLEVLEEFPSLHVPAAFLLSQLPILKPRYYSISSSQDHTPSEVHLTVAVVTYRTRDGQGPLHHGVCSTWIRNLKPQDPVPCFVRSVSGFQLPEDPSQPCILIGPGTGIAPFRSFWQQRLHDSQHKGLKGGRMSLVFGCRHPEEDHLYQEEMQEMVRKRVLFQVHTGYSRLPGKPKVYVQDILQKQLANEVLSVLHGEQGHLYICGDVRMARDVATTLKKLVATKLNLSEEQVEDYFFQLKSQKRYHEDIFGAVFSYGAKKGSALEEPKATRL
Protocol: Thus EMT6 cytosolic preparations (i.e., cell-free solutions) were prepared and an enzyme activity was characterized which forms NO and citrulline from arginine. This reaction requires NADPH (FIG. 18 and 19) and other cofactors.
Incubation mixtures were 100 μl total volume containing: 40 μl cytosol (100,000×g supernatant), 2 mM L-arginine, 2 mM NADPH, 20 mM TRIS (pH 8.0) and a "cocktail" of protease inhibitors.
From kinetic studies an apparent Michaelis-Menton constant for L-arginine utilization by the enzyme was deduced. FIG. 20 is a Lineweaver-Burke plot for synthesis of nitrite from L-arginine by cytosol from stimulated EMT6 cells. The rate of nitrite formation was evaluated over a range of L-arginine (ARG) concentrations (from 0.03-2.0 mM) under conditions similar to that described for FIG. 18, except that incubates contained 50 μl cytosol in a total volume of 80 μl. Open and filled circles represent results obtained with each of two cytosol preparations. […] N^G -substituted arginine analogs were screened for precise quantitation of their ability to inhibit arginine-dependent NO formation by the EMT6 enzyme system.

[4] = test system: nitroglycerin-treated dogs; assay: Nitroglycerin-induced hypotension in dogs (Example 4); assay type: in vivo, dog; conditions: Table 1, Study 2: Nitroglycerin-treated (n = 3)
Experimental: Animals: Studies were carried out on 12 conditioned mongrel dogs (9 males and 3 females) weighing 22-32 kg (avg=25.3 kg). Animal care was in accordance with the recommendations of the American Association for Accreditation of Laboratory Animal Care, and met all standards prescribed by the Guide for the Care and Use of Laboratory Animals (Guide for the Care and Use of Laboratory Animals (1978) Dept. of Health, Education and Welfare, Washington, D.C. (Publ. No. 78-23). Animal protocols were approved by The University of Texas Animal Welfare Committee. The dogs were fasted overnight prior to the day of experimentation. They were anesthetized with sodium pentobarbital (25 mg/kg I.v.). Dogs were then endotracheally intubated and ventilated with a piston-driven respirator (Harvard instruments) using room air at a tidal volume of 20 ml/kg and at a rate of 10 to 12 breaths per minute, adjusted to achieve a normal arterial pH and pCO2 (Instrumentation Laboratories 1L13012 pH/Blood Gas Analyzer). Catheters were placed percutaneously into the femoral and pulmonary arteries; In the latter, a flow-directed thermal-dilation catheter was used (Abbott Critical Care Systems).
Physiologic measurements: Mean SAP and heart rate were continuously monitored (Parametron 7048 Monitoring System, Roche) and stored on a magnetic disk using an analog-to-digital converter (Scientific Solutions, Inc.). Cardiac output (CO) was determined as the mean of six measurements by thermal-dilution. Systemic vascular resistance was calculated as (SAP X80)/CO and expressed as […].
Protocol: After the blood pressure and heart rate stabilized, endotoxin (40 ug/kg, in 10 ml of phosphate-buffered saline (PBS), pH 7.4) was infused i.v. over 2 minutes. This dose of endotoxin typically induces severe and often lethal cardiovascular collapse in the dog. Blood pressure was monitored, and when either SAP fell below 60 mmHg or a stable nadir in systemic arterial pressure (SAP) was maintained for 10 minutes, L-NMA was administered (20 mg/kg in 5 ml of PBS i.v. over 1 min.). In most experiments, L-arginine (400 mg/kg in 20 mi PBS) was administered ten minutes later by i.v. infusion over 2 minutes. In control experiments, dogs without prior exposure to endotoxin received L-NMA alone. To simulate the hypotension observed in dogs receiving endotoxin, one group of dogs received a continuous i.v. infusion of nitroglycerin (2 mg/ml) at a rate adjusted to maintain the SAP at 60-70 mm Hg. Nitroglycerin-treated dogs then received L-NMA (20 mg/kg) and 20 minutes later L-arginine was administered […].
In an additional series of experiments, blood pressure was reduced to 65 mm Hg by continuous i.v. infusion of nitroglycerin, a hypotensive agent that forms NO by an L-arginine and NO synthetase-independent mechanism.

[5] = test system: murine brain endothelial cells (MBEC); assay: Nitrite production by MBEC exposed to cytokines / immunomodulators (Griess assay); assay type: cell-based; conditions: IFN 100 U/ml, TNF 500 U/ml, IL-1 10 U/ml, endotoxin 1 μg/ml; 48 hours
[6] = test system: bovine aortic endothelial cells (BAEC); assay: A23187-stimulated nitrite release from bovine aortic endothelial cells; assay type: cell-based; conditions: 2-hr, L-arginine-free medium, FIG. 9a
Experimental: The % inhibition of relaxation is calculated from the maximum ACh-induced relaxation observed in the presence of the arginine analog relative to that in its absence. Points represent mean values±SEM (n=4-6). […] Another N^G substitution tested for inhibition of induced nitrite release had two methyl groups on one of the arginine guanidino nitrogens. Concentration-response relationships for inhibition of A23187-stimulated nitrite release by bovine aortic endothelial cells (BAEC) are shown in FIG. 9a for the N,N-disubstituted derivative in comparison with several monosubstituted derivatives. Nitrite production was measured as an indication of nitric oxide synthesis since nitric oxide spontaneously decays to nitrite. Nitrite production by BAEC in a 2-hr. period was assessed in an L-arginine-free medium alone or in the presence of the indicated concentration of arginine analogs. The points plotted represent means±S.E. of the percent inhibition of nitrite production observed in 3 individual BAEC culture wells. The key on FIG. 9a indicates the groups substituted on the guanidino nitrogens of L-arginine.
Points are mean values±SEM (n=3).

lethal ET shock animal = assay: Reversal of lethal-dose endotoxin shock by N^G-aminoarginine; assay type: in vivo
Experimental: The reversal of ET shock (lethal dose) by N^G -aminoarginine (NAA) for 4 hrs. […] FIG. 26 depicts systemic arterial pressure (SAP) versus time (min). ET (2 mg/kg), a lethal dose, was infused over 60 min. and NAA administered at 97, 165, and 374 min. to maintain blood pressure. The animal was survived for 24 hours and then autopsied.

[7] = test system: mongrel dogs with TNF-induced hypotension; assay: TNF-induced hypotension in anesthetized dogs; assay type: in vivo, dog; conditions: dog, FIG. 25
Experimental: Recombinant human TNF specific activity 2×10^7 units/mg, was from the Niposn Chemical Corporation, Tokyo, Japan. TNF was administered at a dose of 10 mcg/kg in a volume of 10 ml of phosphate buffered saline containing 2 mgs/ml of dog albumin. […] Arginine was obtained from Sigma Chemical Company, St. Louis, Mo.
Four conditioned mongrel dogs, 2 males and 2 females, weighing 28 to 30 kgs, were studied. Care of the animals were in accordance with the recommendation of the American Association for Accreditation of Laboratory Animals [DHEW(DHHS) publication no. (NIH) 78-23, revised, 1978]. On the day of the experiment, the dogs were fasted overnight. They were anesthetized with phenobarbital (10 mg/kg). They were then intubated orally with a #10 fr. endotracheal tube and ventilated with a Harvard pump ventilator at a rate of 12 breaths per minute and a tidal volume of 15 ml/kg. An arterial line was percutaneously placed in the femoral artery on the day of the experiment.
Mean (electronic) and phasic systemic arterial pressures (SAP) were continuously recorded on a Hewlett-Packard recording system (model 7758B) using strain gauge manometers (Hewlett-Packard model 1290A) which were connected to the arterial line. Heart rate (HR) was determined from an EKG tracing and continuously recorded on the Hewlett-Packard recording system. Oxyhemoglobin saturation (SaO2) was obtained using a pulse oximeter (BIOX 111, Boulder, Colo.). continuous time-series records of SAP, HR, and SaO2 were obtained using a Lab Master analog-to-digital convertor (16 channel, 12 bit, 30 kHz; Scientific Solutions, Inc.) sampling at 55 Hz and storing the 6 sec averages on a magnetic disk.

[8] = test system: systemic hypotension mediated by interleukin-1; assay: Interleukin-1 mediated systemic hypotension; assay type: in vivo; conditions: FIG. 27
L929 cells = assay: Cytolytic activity of rh-TNF against Actinomycin D-treated L929 cells; assay type: cell-based, murine; conditions: murine L929 cells, in vitro
Experimental: TNF bioactivity was measured by the cytotoxicity towards murine L929 cells, in vitro.

[9] = test system: isolated guinea pig heart; assay: Histamine-induced nitrite release and coronary flow in isolated perfused guinea pig heart; conditions: histamine-elicited
Experimental: Histamine was administered as a rapid bolus injection into the aorta and net nitrite release during the subsequent 2.5 minutes was determined.

[10] = murine endothelial cells, Gamma-Interferon (100 U/ml) and TNF (500 U/ml), in vitro

CN=C(NC)NCCC[C@H](N)C(=O)O [Me,Me'--]
inhibition of ACh-induced vasorelaxation (rabbit aortic rings): not a good inhibitor

N=C(NCCC[C@H](N)C(=O)O)N[N+](=O)[O-] [Nitro-L-Arginine, N^G -nitroarginine]
inhibition of EDRF/NO synthesis [1]: served as inhibitors of EDRF/NO synthesis
IC50 [2, 10]: 2120 µM

CCNC(=N)NCCC[C@H](N)C(=O)O [L-N^G -ethylarginine (L-NEA), L-N^G -ethylarginine]
effect on diastolic BP / pressor effect (words) (anesthetized guinea pig): sustained pressor effect
mode of inhibition ([3]; Lineweaver-Burke): competitive inhibitor
fold less active than NMMA ([3]; compared with NMMA, FIG. 22): approximately 10 -fold

COC(=O)[C@H](N)CCCNC(=N)N[N+](=O)[O-] [Nitro-D-Arginine methyl ester]
IC50 [2]: > 4500 µM

O=[N+]([O-])OCC(CO[N+](=O)[O-])O[N+](=O)[O-] [Nitroglycerin]
Cardiac Output [4]: 2.72 ± 0.27 L/min
Heart Rate [4]: 137.3 ± 5.0 beats/min
Systemic Arterial Pressure [4]: 64.7 ± 2.7 mmHg
Systemic Vascular Resistance [4]: 1924 ± 132 dynes-sec/cm^5

CNC(=N)NCCC[C@@H](N)C(=O)O [D-NMA, reference compound]
inhibition of EDRF/NO synthesis [1]: not an inhibitor of EDRF/NO synthesis

CC(=O)N[C@H]1C(O)O[C@H](CO)[C@@H](O)[C@@H]1O[C@H](C)C(=O)N[C@@H](C)C(=O)N[C@H](CCC(=O)O)C(N)=O (stereo partly drawn) [muramyl dipeptide (MDP), muramyl dipeptide, reference compound]
effect on nitrite production by MBEC [5]: Neither muramyl dipeptide (MDP) or Il-2 alone, or in combination with IFN effected nitrite production

CN(C)C(=N)NCCC[C@H](N)C(=O)O [Me,Me--]
potency for inhibition of A23187-stimulated nitrite release [6]: approximately equipotent to L-N^G -methylarginine
inhibition of EDRF/NO synthesis [1]: served as inhibitors of EDRF/NO synthesis
inhibition of ACh-induced vasorelaxation (rabbit aortic rings): active inhibitor

N=C(NCCC[C@@H](N)C(=O)O)N[N+](=O)[O-] [Nitro-D-Arginine]
IC50 [2, 10]: > 4500 µM

COC(=O)[C@@H](N)CCCNC(=N)N[N+](=O)[O-] [Nitro-L-Arginine methyl ester]
IC50 [2]: 1830 µM

N=C(NN)NCCC[C@H](N)C(=O)O [Aminoarginine, L-N^G -aminoarginine]
survival (lethal ET shock animal; ET 2 mg/kg, multiple NAA doses, then autopsied): 24 h
pathological changes at autopsy (lethal ET shock animal; liver, lungs, heart, brain, bowel or kidney): No pathological changes
effectiveness in reversing TNF hypotension vs NMMA [7]: more effective than NMMA
activity ranking in inhibition of ACh-induced relaxation ([1]; compounds tested thus far): greatest activity
inhibition of EDRF/NO synthesis [1]: served as inhibitors of EDRF/NO synthesis
IC50 [2]: 110 µM
potency ranking as inhibitor of nitric oxide production [2]: most potent inhibitor of nitric oxide production measured thusfar
potency ranking as inhibitor of nitric oxide production ([2]; listed as N^G -aminoarginine): most potent derivative tested
reversal of IL-1 mediated hypotension [8]: reverse systemic hypotension
effect on cytolytic effect of TNF towards tumor cells (L929 cells): did not alter the cytolytic effect of TNF

N=C(NCCC[C@H](N)C(=O)OCc1ccccc1)N[N+](=O)[O-] [Nitro-L-Arginine benzyl ester]
IC50 [2, 10]: > 1200 µM

NCCc1c[nH]cn1 [histamine, reference compound]
effect on coronary flow (vasodilation) [9]: dose-dependent increase in coronary flow
